Test system: PKB
Assay: PKB activation in dendritic cells (phospho-PKB Western blot)
Format: cell-based, mouse
Procedure: FIG. 1. TRANCE activates p44/42 ERK, NF-κB and PKB in osteoclasts and dendritic cells. (A) Mature bone marrow-derived osteoclasts were stimulated for the indicated times with recombinant hCD8-TRANCE (TRANCE; 1 μg/ml). Levels of phosphorylated forms of p44/p42 ERK (p44 ERK^P and p42 ERK^P), IκBα (IκB-α^P) and PKB (PKB^P) in whole cell extracts were determined using phospho-peptide-specific antibodies as indicated in the figure. The membranes were stripped and incubated with antibodies against the p44/p42 ERK, IκB-α, and PKB as indicated to confirm that similar amounts of whole cell extracts were analyzed. Note the decrease of IκB-α after 10 min of treatment due to its degradation. (B) as in (A) except the use of mature bone marrow-derived dendritic cells instead of osteoclasts.
FIG. 2. TRANCE-induced PKB activation in osteoclasts and dendritic cells is blocked by inhibitors of PI3-kinase, tyrosine kinases and Src family kinases. (A) Osteoclasts were serum starved and then pretreated for 90 min with LY294002 (10 μM), Herbimycin A (Herb. A; 10 μM), and PP1 (10 μM) inhibitors which are specific for PI3-kinase, PTKs, and Src-family kinases, respectively, were stimulated for indicated times with TRANCE (1 μg/ml). Levels of phosphorylated p44/p42 ERK, PKB, and IκB-α were determined as described in FIG. 1. Cells pretreated with vehicle (DMSO) were used as a negative control. (B) as in (A) except the use of mature bone marrow-derived dendritic cells.
FIG. 6. Cytokine receptors that engage TRAF6 activate PKB through Src-family kinases. (A) Dendritic cells were treated with TNF (10 ng/ml), TRANCE (5 μg/ml), LPS (50 μg/ml), or IL-1α (20 ng/ml) for the indicated times (min). The activation of PKB was determined in whole cell extracts using a phospho-PKB-specific antibody as described in FIG. 1. (B) Dendritic cells were pretreated with vehicle (DMSO) or the Src-family kinase inhibitor, PP1 (10 μM) for 90 minutes followed by a 15 minute treatment with TRANCE (5 μg/ml), LPS (50 μg/ml), or IL-1α (20 ng/ml) or no treatment at all (−). The activation of PKB was determined as described in FIG. 1.
Primary cells and cell lines. Osteoclasts and macrophages were generated from bone marrow precursors as described (Wani, et al., Endocrinology, 140:[…], 1999). In brief, bone marrow cells from tibiae and femur of 4-6 week old mice (C57BL/6, Jackson Laboratories) were cultured overnight in media (α-MEM, 10% FCS) in the presence of CSF-1 (5 ng/ml). After 24 hours, non-adherent cells were harvested, washed, and further cultured in media with CSF-1 (50 ng/ml) plus TRANCE (10 ng/ml) to develop osteoclasts, or with CSF-1 alone to develop macrophages. Using these conditions, after 4 days of culture, greater than 95 percent of the adherent cells were osteoclasts or macrophages. For experiments described in this study, only adherent cells were used after extensive washing. Mature dendritic cells were generated from bone marrow precursors of 4-6 week old female C57BL/6 mice (C57BL/6, Jackson Laboratories) cultured in media (RPMI1640, 5% FBS) and GM-CSF (1:30 cultured supernatant from the J558 cell line, a gift from Dr. R. M. Steinman, The Rockefeller University) for 8 days as previously described (Inaba, et al., J. Exp. Med., 176:1693-1702, 1992). To generate osteoclasts and dendritic cells from c-Src deficient mice, spleen cells, which contain hematopoietic precursors due to extramedullary hematopoeisis, were substituted for bone marrow cells as previously described (Schwartzberg, et al., Genes Dev., 11:2835-2844, 1997). Mature spleen-derived dendritic cells were isolated from spleens treated with collagenase (40 U/ml; Boehinger Mannheim) and subjected to a Nycodenz centrifugation gradient (14.5%; Nycomed) to obtain low density cells. After allowing them adhere for 2 hours to a tissue culture dish, contaminating floater cells were washed away and mature dendritic cells were obtained by overnight culture.
Cell stimulation, cell transfection and in vitro assays. […]

## TNF-related activation-induced cytokine [TRANCE]
TNF 10 ng/ml, TRANCE 5 μg/ml, LPS 50 μg/ml, IL-1α 20 ng/ml, CD40L data not shown
  PKB activation in dendritic cells stimulated with cytokine: activated
TRANCE-treated, compared with wild-type
  PKB activation in dendritic cells from c-Src−/− mice: not significantly reduced
Dendritic cells, TRANCE stimulation
  time for which PKB activity was sustained: greater than 3 hours
Dendritic cells, after 5 minutes, TRANCE 1 μg/ml
  phosphorylated form of PKB upon TRANCE stimulation: increase

— patent US6492124B1, “Trance activated signal transduction pathways in osteoclasts” (The Rockefeller University, priority 1999, dated 2002)
